Data on six molecules can be found in patent publication US9315510B2, “Method and application of unsymmetrically meso-substituted porphyrins and chlorins for PDT” (Biolitec Pharma Marketing LTD, priority 2008, dated 2016).

In data set [1] the test system is human colon adenocarcinoma cell line HT29. Nature of the data set: Cell tests in the HT 29 cell line: photosensitizing activity, XTT cell viability. The format is cell-based. Here is the method:
The photosensitizing activity was determined in the human colon adenocarcinoma cell line HT29. The HT29 cell lines were grown in DMEM (cc-pro GmbH) supplemented with 10% heat-inactivated fetal calf serum (FCS, cc-pro GmbH), 1% penicillin (10000 IU) and streptomycin (10000 μg/ml, cc-pro GmbH). Cells were kept as a monolayer culture in a humidified incubator (5% CO2 in air at 37° C.
(§1) A photosensitizer stock solution (2 mM) was performed in DMSO and was kept in the dark at 4° C. Further dilution was performed in RPMI 1640 medium without phenol red supplemented with 10% FCS to reach a final photosensitizer concentration of 2 or 10 μM, respectively.
(§2) 2·10^4 cells/ml were seeded in micro plates (2·10^5 cells/well). Cells were incubated with fresh medium (RPMI without phenol red) containing 10% FCS with 2 or 10 μM of the photosensitizer for 24 h before light exposure. […]
(§3) The cell viability was assessed by the XTT assay. […]
(§4) The absorbance of the samples was measured with a spectrophotometer (Bio-Kinetics Reader EL312 e; Bio-Tek Instruments Inc.) at a wavelength of 490 nm. In order to measure reference absorbance (to measure non-specific readings) a wavelength of 630-690 nm was used.

In data set [2] the test system is rabbit synoviocyte cell line HIG-82. Nature of the data set: Cell tests in the rabbit synoviocyte cell line HIG-82: photodynamic activity, XTT cell viability. The format is cell-based. Particulars: HIG82, 2 or 10 μM photosensitizer, 24 h incubation, 652 nm diode laser, 50 J/cm^2. Here is the method:
(§5) The mouse monocytes-macrophages cell line J774A.1 and the rabbit synoviocyte cell line HIG-82 were grown in DMEM (cc-pro GmbH) supplemented with 10% heat-inactivated fetal calf serum (FCS, cc-pro GmbH), 1% penicillin (10000 IU) and streptomycin (10 000 μg/ml, cc-pro GmbH). Cells were kept as a monolayer culture in a humidified incubator (5% CO2 in air at 37° C.).
as §1, §2, §3, §4

Data set [3] relates to mouse monocytes-macrophages cell line J774A.1. Put plainly: Cell tests in the mouse macrophage cell line J774A.1: photodynamic activity, XTT cell viability. Format: cell-based. Particulars: 2 or 10 μM photosensitizer, 24 h incubation, 652 nm diode laser, 50 J/cm^2. The procedure:
as §5, §1, §2, §3, §4

For “5,15-Bis-(4-carboxyphenyl)-10,20-dihexyl-7,8-dihydroxy-7,8-chlorin”, the “photodynamic activity (photo toxicity)” value in data set [1] (HT29, 2 or 10 μM photosensitizer, 24 h incubation, 652 nm diode laser, 100 mW/cm^2 (50 J/cm^2), XTT 24 h after irradiation) is “very strong photodynamic activity”. Moreover, the “dark toxicity (DT) and photo toxicity” value in data set [1] (HT 29 cell line, cell culture experiments (FIG. 4A)) is on record as “excellent properties”. The photodynamic activity result in data set [2] and in data set [3] was “very strong photodynamic activity” each time.

Molecule `CCCCCCCCCCCCCc1c2nc(c(CCCCCCCCCCCCC)c3ccc([nH]3)c(-c3cccc(O)c3)c3nc(c(-c4cccc(O)c4)c4ccc1[nH]4)C=C3)C=C2` [5,10-Bis-(3-hydroxyphenyl)-15,20-bis-(tridecyl)-porphyrin] came in with a melting point of 113 °C.

Consider `CCCCCCc1c2nc(c(CCCCCC)c3ccc([nH]3)c(-c3ccc(C(=O)OC)cc3)c3nc(c(-c4ccc(C(=O)OC)cc4)c4ccc1[nH]4)C=C3)C=C2` [5,10-Dihexyl-15,20-bis-(4-methoxycarbonylphenyl)-porphyrin], for which the melting point turned out to be 131 °C.

Consider `CCCCCCCCCCCCCc1c2nc(c(-c3cccc(O)c3)c3ccc([nH]3)c(CCCCCCCCCCCCC)c3nc(c(-c4cccc(O)c4)c4ccc1[nH]4)C=C3)C=C2` [5,15-Bis-(3-hydroxyphenyl)-10,20-bis-(tridecyl)-porphyrin], for which the melting point was 133 °C.

The molecule `CCCCCCc1c2nc(c(-c3ccc(C(=O)OC)cc3)c3ccc([nH]3)c(CCCCCC)c3nc(c(-c4ccc(C(=O)OC)cc4)c4ccc1[nH]4)C=C3)C=C2` [5,15-Dihexyl-10,20-bis-(4-methoxycarbonylphenyl)-porphyrin] yielded a melting point of 238 °C.

Take `CCCCCCc1c2nc(c(-c3ccc(C(=O)O)cc3)c3ccc([nH]3)c(-c3ccc(C(=O)O)cc3)c3nc(c(CCCCCC)c4ccc1[nH]4)C(O)C3O)C=C2` (stereo not shown) [5,20-Bis-(4-carboxyphenyl)-10,15-dihexyl-7,8-dihydroxy-7,8-chlorin]: the photodynamic activity result in data set [2] and in data set [3] was “very strong photodynamic activity” each time.
